From patent US20250163043A1 (TRANSTHERA SCIENCES (NANJING), INC., priority 2021, published 2025) come the findings set out here.

Holding throughout (assay type): biochemical
One assay has as its target CDK9/CycT1 (Homo sapiens, UniProt P50750). As to the kind of experiment: ADP-Glo kinase assay on CDK enzymatic activity, CDK9/CycT1. The note with it: 10 concentrations from 10 μM, 4-fold, 60 min room temperature. The essentials:
(§1)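 Steps: compound (10 μM top, 4-fold series) plus kinase, 10 min RT; add substrate/ATP mix, 60 min RT; ADP-Glo reagent 40 min; detection reagent 40 min; read luminescence. Inhibition referenced to AZD4573 (1 μM) and DMSO vehicle; IC50 by nonlinear fit.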
(ADP-Glo turns the ADP formed in a reaction into a luminescent signal.)

A further assay has as its target CDK1/CycE1 (Homo sapiens, UniProt P06493). Briefly: ADP-Glo kinase assay on CDK enzymatic activity, CDK1/CycE1. To be noted: ADP-Glo; 10 concentrations from 10 μM, 4-fold; 60 min room temperature; read-out: CDK1/CycE1/nM (IC50). The procedure, abridged:
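Compounds in 10-point 4-fold dilutions from 10 μM final, preincubated 10 min with kinase, then substrate/ATP added; 60 min reaction at room temperature. ADP-Glo luminescence read.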

The target of another assay is CDK2/CycA2 (Homo sapiens, UniProt P24941). Briefly: ADP-Glo kinase assay on CDK enzymatic activity, CDK2/CycA2. To be noted: 10 concentrations from 10 μM, 4-fold, 60 min room temperature. The procedure, abridged:
as §1

In the next assay the target is CDK3/CycE1 (Homo sapiens, UniProt Q00526). Briefly: ADP-Glo kinase assay on CDK enzymatic activity, CDK3/CycE1. To be noted: 10 concentrations from 10 μM, 4-fold, 60 min room temperature. From the text: (§2) Test samples: the compounds of the present invention, having structures shown above.
(§3) ADP-Glo Kinase Assay (ADP-Glo kinase kit), DMSO (dimethyl sulfoxide), CDK9/CycT1 (cyclin-dependent kinase 9/cyclin T1), CDK tide (cyclin-dependent kinase substrate peptide fragments), CDK1/CycE1 (cyclin-dependent kinase 1/cyclin E1), CDK2/CycA2 (cyclin-dependent kinase 2/cyclin A2), CDK3/CycE1 (cyclin-dependent kinase 3/cyclin E1), CDK4/CycD3 (cyclin-dependent kinase 4/cyclin D3), CDK5/p25NCK (cyclin-dependent kinase 5/p25), and AZD 4573.
(§4) A 384-well white plate, a 96-well plate, a microplate oscillator, a centrifuge, and a microplate reader.
(§5) The compounds were dissolved in DMSO and diluted 4-fold in the 96-well plate to obtain stock solutions with 10 concentration gradients, and added into a 384-well plate system to obtain a series of 10 concentration gradients of compound solutions with final concentrations of 10 μM starting and 4-fold gradient decreasing. 1 μM AZD4573 was used as compound positive control (PC) and 0.5% DMSO as solvent vehicle control (VC), ten duplicated wells each for PC and VC.
(§6) 1 μL of compound solution and 2 μL of 2× kinase solution were transferred to each well, and the plate was centrifuged at 1000 g for 30 s and left at room temperature for 10 min. A mixture of 2× substrate and ATP was prepared in 1× kinase buffer. The reaction was started after adding 2 μL of substrate and ATP into the plate. The plate was centrifuged at 1000 g for 30 s. The assay plate was closed and left at room temperature for 60 min. The reaction system was added with 4 μL of ADP Glo reagent, centrifuged at 1000 rpm for 1 min, and incubated at room temperature for 40 min. The reaction system was added with 8 μL of kinase assay reagent, centrifuged at 1000 rpm for 1 min and incubated at room temperature for 40 min. The […] was read on Biotek.
(§7) The inhibition rate was calculated according to the following formula: […]
(§8) Lumcmpd: compound fluorescence reading; Lumpositive: average value of the fluorescence reading of positive compound control; Lumvehicle: average value of the fluorescence reading of solvent vehicle control.
(§9) IC50 values were fitted using GraphPad 7.0 based on inhibition rates of compounds at different concentrations.

The next assay deals with CDK5/p25NCK (Homo sapiens, UniProt Q00535). As to the kind of experiment: ADP-Glo kinase assay on CDK enzymatic activity, CDK5/p25NCK. The note with it: 10 concentrations from 10 μM, 4-fold, 60 min room temperature.
Excerpt: as §2, §3, §4, §5, §6, §7, §8, §9

Chain of CDK3/CycE1 (Q00526 whole entry, species assumed, the tested form may be a part): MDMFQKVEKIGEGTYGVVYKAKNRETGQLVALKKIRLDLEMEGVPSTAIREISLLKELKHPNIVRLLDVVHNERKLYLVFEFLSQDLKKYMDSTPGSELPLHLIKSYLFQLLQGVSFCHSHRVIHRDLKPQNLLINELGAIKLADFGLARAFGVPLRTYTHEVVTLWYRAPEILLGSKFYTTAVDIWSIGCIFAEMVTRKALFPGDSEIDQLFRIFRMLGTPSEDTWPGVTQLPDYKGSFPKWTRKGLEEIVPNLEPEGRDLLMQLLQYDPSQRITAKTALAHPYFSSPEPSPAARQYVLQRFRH
Chain of CDK3/CycE1 (P24864 whole entry partner, species assumed, the tested form may be a part): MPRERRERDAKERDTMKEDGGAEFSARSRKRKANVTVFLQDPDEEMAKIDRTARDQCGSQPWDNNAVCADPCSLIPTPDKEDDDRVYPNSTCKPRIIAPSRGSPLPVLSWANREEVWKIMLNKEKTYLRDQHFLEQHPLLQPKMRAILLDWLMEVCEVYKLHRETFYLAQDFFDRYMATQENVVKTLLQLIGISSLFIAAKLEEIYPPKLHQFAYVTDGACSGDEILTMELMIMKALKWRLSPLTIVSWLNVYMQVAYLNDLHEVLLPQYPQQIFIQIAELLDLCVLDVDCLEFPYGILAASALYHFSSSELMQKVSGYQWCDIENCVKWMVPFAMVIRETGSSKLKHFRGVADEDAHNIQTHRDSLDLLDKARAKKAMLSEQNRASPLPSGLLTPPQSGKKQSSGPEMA
Chain of CDK5/p25NCK (Q00535 whole entry, species assumed): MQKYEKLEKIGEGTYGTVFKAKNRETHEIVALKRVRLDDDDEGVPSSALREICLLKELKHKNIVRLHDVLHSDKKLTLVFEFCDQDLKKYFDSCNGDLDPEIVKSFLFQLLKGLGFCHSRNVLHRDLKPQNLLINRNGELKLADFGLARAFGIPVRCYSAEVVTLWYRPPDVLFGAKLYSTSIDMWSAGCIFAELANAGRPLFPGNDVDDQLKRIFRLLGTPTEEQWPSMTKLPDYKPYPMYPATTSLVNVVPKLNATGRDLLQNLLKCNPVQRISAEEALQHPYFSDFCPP
Chain of CDK5/p25NCK (Q15078 99-307 partner limits assumed, species assumed): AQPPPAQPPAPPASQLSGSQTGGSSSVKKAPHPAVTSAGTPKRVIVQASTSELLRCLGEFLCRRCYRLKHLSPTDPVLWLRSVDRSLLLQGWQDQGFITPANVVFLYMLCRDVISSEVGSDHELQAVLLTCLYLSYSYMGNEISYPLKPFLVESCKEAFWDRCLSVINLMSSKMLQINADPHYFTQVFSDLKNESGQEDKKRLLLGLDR
Chain of CDK9/CycT1 (P50750 whole entry): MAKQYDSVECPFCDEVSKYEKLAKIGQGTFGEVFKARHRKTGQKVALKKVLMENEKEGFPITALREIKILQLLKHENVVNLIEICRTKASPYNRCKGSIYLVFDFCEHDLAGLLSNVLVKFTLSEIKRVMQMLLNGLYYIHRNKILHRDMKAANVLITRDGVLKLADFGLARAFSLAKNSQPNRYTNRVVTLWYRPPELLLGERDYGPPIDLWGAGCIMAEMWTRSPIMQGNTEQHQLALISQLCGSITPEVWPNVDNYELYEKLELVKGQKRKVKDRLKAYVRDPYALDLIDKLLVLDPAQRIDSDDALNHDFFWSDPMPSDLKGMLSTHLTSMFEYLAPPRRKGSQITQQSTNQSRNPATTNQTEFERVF
Chain of CDK9/CycT1 (O60563 whole entry partner): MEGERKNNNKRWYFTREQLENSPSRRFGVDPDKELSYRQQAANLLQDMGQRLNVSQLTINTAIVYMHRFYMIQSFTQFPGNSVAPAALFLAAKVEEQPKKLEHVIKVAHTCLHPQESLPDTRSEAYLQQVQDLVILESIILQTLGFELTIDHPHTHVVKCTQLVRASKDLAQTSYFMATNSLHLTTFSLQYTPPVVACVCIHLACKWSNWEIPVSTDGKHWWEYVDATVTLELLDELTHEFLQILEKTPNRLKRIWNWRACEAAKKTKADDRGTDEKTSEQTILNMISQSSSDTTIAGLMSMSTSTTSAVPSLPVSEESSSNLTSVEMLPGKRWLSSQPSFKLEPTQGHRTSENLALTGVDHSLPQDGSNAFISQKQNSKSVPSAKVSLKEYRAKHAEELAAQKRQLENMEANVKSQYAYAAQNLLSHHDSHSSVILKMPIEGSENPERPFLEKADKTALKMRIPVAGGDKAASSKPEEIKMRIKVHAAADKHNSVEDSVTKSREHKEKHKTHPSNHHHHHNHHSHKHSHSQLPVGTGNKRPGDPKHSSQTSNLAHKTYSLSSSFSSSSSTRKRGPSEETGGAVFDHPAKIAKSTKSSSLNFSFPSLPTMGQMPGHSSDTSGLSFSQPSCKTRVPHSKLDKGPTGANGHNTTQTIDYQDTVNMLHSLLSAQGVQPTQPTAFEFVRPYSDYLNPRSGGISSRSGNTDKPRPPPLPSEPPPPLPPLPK
Chain of CDK1/CycE1 (P06493 whole entry, species assumed): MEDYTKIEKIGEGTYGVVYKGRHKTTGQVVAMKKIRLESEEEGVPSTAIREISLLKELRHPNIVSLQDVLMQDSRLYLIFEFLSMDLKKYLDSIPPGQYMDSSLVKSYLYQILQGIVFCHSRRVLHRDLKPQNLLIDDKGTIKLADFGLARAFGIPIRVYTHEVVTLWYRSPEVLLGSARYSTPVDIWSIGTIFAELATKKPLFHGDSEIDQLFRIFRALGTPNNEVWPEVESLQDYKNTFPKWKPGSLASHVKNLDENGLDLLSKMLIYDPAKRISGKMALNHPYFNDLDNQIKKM
Chain of CDK1/CycE1 (P24864 whole entry partner, species assumed): as the sequence (P24864 whole entry partner, species assumed, the tested form may be a part) above

`CC(C)Nc1nc(C#N)cc2cnc(N[C@H]3CCCNC3)cc12` [Compound 38, (S)-1-(isopropylamino)-7-(piperidin-3-ylamino)-2,6-naphthyridine-3-carbonitrile]: the IC50 on CDK9/CycT1 turned out to be 2 nM; at CDK1/CycE1, 83 nM; against CDK2/CycA2 it was 110 nM; against CDK3/CycE1, 66 nM; at CDK5/p25NCK it was 103 nM.

Regarding `N#Cc1cc2cnc(N[C@H]3CC[C@H](N)C3)cc2c(NCC2(C#N)CCOCC2)n1` [Compound 60, 7-(((1S,3S)-3-aminocyclopentyl)amino)-1-(((4-cyanotetrahydro-2H-pyran-4-yl)methyl)amino)-2,6-naphthyridine-3-carbonitrile], the IC50 against CDK9/CycT1 is 29 nM; against CDK2/CycA2, 1810 nM; at CDK3/CycE1, at least 12100 nM; on CDK5/p25NCK, 8390 nM.

Regarding `CC(Nc1nc(C#N)cc2cnc(N[C@H]3CCCNC3)cc12)C(F)(F)F` (stereo partly drawn) [Compound 61, 7-(((S)-piperidin-3-yl)amino)-1-((1,1,1-trifluoropropan-2-yl)amino)-2,6-naphthyridine-3-carbonitrile], the IC50 against CDK9/CycT1 turned out to be 3 nM; on CDK1/CycE1, 173 nM; against CDK2/CycA2, 227 nM; against CDK3/CycE1, 124 nM; against CDK5/p25NCK it was 484 nM.

As to `CC(C)Nc1nc(C#N)cc2cnc(N[C@H]3CC[C@H](C)NC3)cc12` [Compound 103, 1-(isopropylamino)-7-(((3S,6S)-6-methylpiperidin-3-yl)amino)-2,6-naphthyridine-3-carbonitrile], the IC50 came out at 3 nM against CDK9/CycT1; 206 nM on CDK1/CycE1; 167 nM against CDK2/CycA2; 398 nM on CDK3/CycE1; 294 nM against CDK5/p25NCK.

With `N#Cc1cc2cnc(N[C@H]3CCCNC3)cc2c(N[C@H](CO)c2ccccc2)n1` [Compound 104, 1-(((S)-2-hydroxy-1-phenylethyl)amino)-7-(((S)-piperidin-3-yl)amino)-2,6-naphthyridine-3-carbonitrile], the IC50 against CDK9/CycT1 was 10 nM; at CDK2/CycA2, 888 nM; against CDK3/CycE1, 550 nM; against CDK5/p25NCK, 2200 nM.

As to `CC(C)Nc1nc(C#N)cc2cnc(N[C@H]3CCCOC3)nc12` [Compound 116, (S)-8-(isopropylamino)-2-((tetrahydro-2H-pyran-3-yl)amino)pyrido[3,4-d]pyrimidine-6-carbonitrile], the IC50 on CDK9/CycT1 came out at 2 nM; on CDK1/CycE1, 114 nM; against CDK2/CycA2, 29 nM; against CDK3/CycE1, 92 nM; on CDK5/p25NCK, 63 nM.

As to `CC(C)Nc1nc(C#N)cc2cnc(N[C@H]3CC[C@H](O)C3)nc12` [Compound 122, 2-(((1S,3S)-3-hydroxycyclopentyl)amino)-8-(isopropylamino)pyrido[3,4-d]pyrimidine-6-carbonitrile], the IC50 at CDK9/CycT1 is 1 nM; at CDK1/CycE1, 3 nM; at CDK2/CycA2, 6 nM; against CDK3/CycE1, 8 nM; at CDK5/p25NCK, 17 nM.

Regarding `CC(C)Nc1nc(C#N)cc2cnc(N[C@H]3C[C@@H](N)C3)nc12` [Compound 126, 2-(((1s,3s)-3-aminocyclobutyl)amino)-8-(isopropylamino)pyrido[3,4-d]pyrimidine-6-carbonitrile], the IC50 on CDK9/CycT1 was 2 nM; on CDK1/CycE1 it was 95 nM; against CDK2/CycA2, 181 nM; against CDK3/CycE1, 287 nM; against CDK5/p25NCK, 238 nM.

On to `CC(C)Nc1nc(C#N)cc2cnc(N[C@H]3C[C@H](N)C3)nc12` [Compound 127, 2-(((1r,3r)-3-aminocyclobutyl)amino)-8-(isopropylamino)pyrido[3,4-d]pyrimidine-6-carbonitrile], for which the IC50 against CDK9/CycT1 stood at 1 nM; on CDK1/CycE1, 10 nM; on CDK2/CycA2, 14 nM; against CDK3/CycE1 it was 8 nM; at CDK5/p25NCK, 46 nM.

On to `CC(C)Nc1nc(C#N)cc2cnc(NC34CC(N)(C3)C4)nc12` [Compound 128, 2-((3-aminobicyclo[1.1.1]pentan-1-yl)amino)-8-(isopropylamino)pyrido[3,4-d]pyrimidine-6-carbonitrile], for which the IC50 against CDK9/CycT1 was 2 nM; on CDK1/CycE1, 43 nM; on CDK2/CycA2, 54 nM; on CDK3/CycE1, 34 nM; against CDK5/p25NCK it was 65 nM.

`CC(C)Nc1nc(C#N)cc2cnc(NC3CC4(CNC4)C3)nc12` [Compound 130, 2-((2-azaspiro[3.3]heptan-6-yl)amino)-8-(isopropylamino)pyrido[3,4-d]pyrimidine-6-carbonitrile]: the IC50 came to 2 nM at CDK9/CycT1; 25 nM at CDK1/CycE1; 74 nM against CDK2/CycA2; 32 nM at CDK3/CycE1; 447 nM against CDK5/p25NCK.

Regarding `CC(C)Nc1nc(C#N)cc2cnc(N[C@H]3CCCNCC3)nc12` [Compound 131, (S)-2-(azepan-4-ylamino)-8-(isopropylamino)pyrido[3,4-d]pyrimidine-6-carbonitrile], the IC50 against CDK9/CycT1 is 6 nM; at CDK1/CycE1, 678 nM; on CDK2/CycA2 it was 388 nM; against CDK3/CycE1, 629 nM; against CDK5/p25NCK, 1530 nM.

For the molecule `CC(C)Nc1nc(C#N)cc2cnc(N[C@H]3CC[C@H](N)CC3)nc12` [Compound 136, 2-(((1r,4r)-4-aminocyclohexyl)amino)-8-(isopropylamino)pyrido[3,4-d]pyrimidine-6-carbonitrile], the IC50 at CDK9/CycT1 turned out to be 2 nM; on CDK1/CycE1, 315 nM; on CDK2/CycA2, 13 nM; on CDK3/CycE1, 27 nM; at CDK5/p25NCK, 116 nM.

For `CC(C)Nc1nc(C#N)cc2cnc(N[C@H]3CCCCNC3)cc12` [Compound 142, (S)-7-(azepan-3-ylamino)-1-(isopropylamino)-2,6-naphthyridine-3-carbonitrile], the IC50 was found to be 2 nM at CDK9/CycT1; 90 nM on CDK1/CycE1; 600 nM against CDK2/CycA2; 66 nM against CDK3/CycE1; 306 nM against CDK5/p25NCK.

As to `N#Cc1cc2cnc(N[C@H]3CCCNC3)cc2c(NC2CCC2)n1` [Compound 144, (S)-1-(cyclobutylamino)-7-(piperidin-3-ylamino)-2,6-naphthyridine-3-carbonitrile], the IC50 was 2 nM on CDK9/CycT1; 90 nM at CDK1/CycE1; 146 nM against CDK2/CycA2; 28 nM at CDK3/CycE1; 195 nM at CDK5/p25NCK.

In the case of `CC1(Nc2nc(C#N)cc3cnc(N[C@H]4CCCNC4)cc23)CC1` [Compound 148, (S)-1-((1-methylcyclopropyl)amino)-7-(piperidin-3-ylamino)-2,6-naphthyridine-3-carbonitrile], the IC50 was found to be 1 nM at CDK9/CycT1; 104 nM at CDK1/CycE1; 171 nM at CDK2/CycA2; 49 nM on CDK3/CycE1; 165 nM against CDK5/p25NCK.

For `CC(C)(C)Nc1nc(C#N)cc2cnc(N[C@H]3CCCNC3)cc12` [Compound 149, (S)-1-(tert-butylamino)-7-(piperidin-3-ylamino)-2,6-naphthyridine-3-carbonitrile], the IC50 against CDK9/CycT1 stood at 1 nM; on CDK1/CycE1 it was 42 nM; against CDK2/CycA2 it was 126 nM; at CDK3/CycE1 it was 60 nM; against CDK5/p25NCK, 295 nM.

Consider `N#Cc1cc2cnc(N[C@H]3CCCNC3)cc2c(N[C@@H]2CCOC2)n1` [Compound 150, 7-(((S)-piperidin-3-yl)amino)-1-(((R)-tetrahydrofuran-3-yl)amino)-2,6-naphthyridine-3-carbonitrile], for which the IC50 came out at 2 nM at CDK9/CycT1; 608 nM at CDK1/CycE1; 450 nM against CDK2/CycA2; 281 nM at CDK3/CycE1; 1460 nM against CDK5/p25NCK.

For `N#Cc1cc2cnc(N[C@H]3CCCNC3)cc2c(N[C@H]2CCOC2)n1` [Compound 151, 7-(((S)-piperidin-3-yl)amino)-1-(((S)-tetrahydrofuran-3-yl)amino)-2,6-naphthyridine-3-carbonitrile], the IC50 on CDK9/CycT1 is 8 nM; on CDK1/CycE1, 411 nM; at CDK2/CycA2 it was 1290 nM; at CDK3/CycE1, 832 nM; against CDK5/p25NCK it was 4140 nM.
